Assay results published in PubChem BioAssay AID1959 (Broad Institute, 2009).
Activity calls are given as the source filed them.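 Rule for the calls: active = growth-inhibition EC50 no more than tenfold above the top tested dose; inconclusive = flat fit between 30% and 70% inhibition, or unreliable fit; inactive = EC50 more than tenfold above the top tested dose.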

Test system: E. coli NEB5alpha growth, BacTiter-Glo luminescence, 4 h
Test: antibacterial activity against E. coli NEB5alpha – luminescence, counter-screen for MEX-5/POS-1 RNA-binding inhibitor project, dose response (AID 1959);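 note: pUC19-transformed ampicillin-resistant cells grown in LB with ampicillin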

SMILES	EC50
C/C(=N\Nc1ccc([N+](=O)[O-])cc1[N+](=O)[O-])c1cc2c(ccc3ccccc32)oc1=O	> 11 µM (inactive)
CC(C)(O)[C@H]1O[C@H]2CC[C@@]3(C)[C@@](O)(CC[C@H]4Cc5c([nH]c6ccccc56)[C@@]43C)C2=CC1=O	> 11 µM (inactive)
C=CCN1C(=O)/C(=C2/Sc3ccc(OC)cc3N2CC)SC1=S	> 11 µM (inactive)
CCn1c(C)cc(/C=C2\C(=O)NC(=O)N(c3ccccc3C)C2=O)c1C	> 11 µM (inactive)
N#Cc1c(N)n(-c2ccc(C(=O)O)cc2)c2nc3ccccc3nc12	> 11 µM (inactive)
Oc1ccc2ccccc2c1/C=N/Nc1nnc(-c2ncc[nH]2)c2ccccc12	> 11 µM (inactive)
COCCNC(=O)Cn1cc(/C=C2\C(=O)NC(=O)N(c3ccccc3F)C2=O)c2ccccc21	> 11 µM (inactive)
Nc1ccc2c(c1)C/C(=C/c1ccco1)C2=O	> 11 µM (inactive)
O=C(c1ccco1)N1CCc2ccccc21	> 11 µM (inactive)
CC(=O)Nc1ccc(N/C=C/C(=O)c2ccc(C)o2)cc1	> 11 µM (inactive)
COC(=O)/C=C1\C(=O)N(c2nc3ccccc3s2)C(=S)N1c1ccc(F)cc1	> 11 µM (inactive)
COc1ccccc1Oc1cn[nH]c1-c1ccc(OCC(=O)NN)cc1O	> 11 µM (inactive)
CCCN1CCCc2cc(CN)ccc21	> 11 µM (inactive)
N=c1c(C(=O)NCC2CCCO2)cc2c(=O)n3ccccc3nc2n1Cc1cccnc1 (stereo not given)	> 11 µM (inactive)
CCCCCCCCOc1ccc(C2OC34CCCCC3C(C#N)(C#N)C2(C#N)C(=N)O4)cc1 (stereo not given)	> 11 µM (inactive)
N=c1c(C(=O)NCC2CCCO2)cc2c(=O)n3ccccc3nc2n1Cc1ccccc1Cl (stereo not given)	> 11 µM (inactive)
CCN(CC)c1ccc(/C=C/C(=O)c2ccc(Br)cc2)cc1	> 11 µM (inactive)
COc1cccc(/C=C2\SC(=S)N(CCCC(=O)NC3=NCCS3)C2=O)c1	> 11 µM (inactive)
Cn1c(=O)c2[nH]c(N=NNc3ccccc3F)nc2n(C)c1=O	> 11 µM (inactive)
CC(C)OC(=O)CC(=O)c1sc2nc3c(cc2c1N)CN(C)CC3	> 11 µM (inactive)
COc1c(/C=C2/C(=O)NC(=O)N(C)C2=O)c(CCN(C)C(=O)c2ccccc2)cc2c1OCO2	> 11 µM (inactive)
N#C/C(=C\c1cc(O)c(O)c(O)c1)C(N)=O	> 11 µM (inactive)
Cc1c(C(=O)O)cccc1-n1c(C)cc(C=O)c1C	> 11 µM (inactive)
COc1cc(OC)c2c(O)c3c(c(-c4c5c(c(O)c6c(OC)cc(OC)cc46)CO[C@@H](C)[C@H]5O)c2c1)[C@H](O)[C@H](C)OC3	> 11 µM (inactive)

SMILES	EC50
CCN(CC)c1ccc(N=Cc2ccc(N(CC)CC)cc2O)cc1	> 11 µM (inactive)
CCc1ccc(N2C(=O)NC(=O)/C(=C\c3cc(C)n(-c4cc(C(=O)O)cc(C(=O)O)c4)c3C)C2=O)cc1	> 11 µM (inactive)
Cn1c(C(=O)NCCCN2CCOCC2)cc2c(=O)n(C)c3ccccc3c21	> 11 µM (inactive)
Oc1ccc(O)c(-c2cnns2)c1	> 11 µM (inactive)
Cc1cc(O)c(C(C)C)cc1N=C1CSC(=O)N1	> 11 µM (inactive)
N#C/C(=N\Nc1ccc(Cl)cc1)C(=O)c1ccsc1	> 11 µM (inactive)
CC(C)c1nnc(N2C(=O)C(O)=C(C(=O)c3cccs3)C2c2ccccc2)s1 (stereo not given)	> 11 µM (inactive)
O=C(O)CCc1ccc(-c2cccs2)n1-c1ccc(C(=O)O)cc1	> 11 µM (inactive)
CC(C)Cc1nnc(NC(=O)CCC(=O)N2CC(C)CC(C)C2)s1 (stereo not given)	> 11 µM (inactive)
CC(C)CNC(=O)C1Nc2ccc(OC(F)(F)F)cc2C2C=CCC12 (stereo not given)	> 11 µM (inactive)
Cc1ccc(N=Cc2cc(Br)cc(Cl)c2O)cc1	> 11 µM (inactive)
COc1ccc(C(=O)/C=C/Nc2ccc([N+](=O)[O-])cc2C)c(OC)c1	> 11 µM (inactive)
N#CC1=C(N)OC2=C(C(=O)CCC2)C12C(=O)N1CCCc3cccc2c31 (stereo not given)	> 11 µM (inactive)
COc1ccc(/C=c2\sc3nc(-c4ccccc4OC)nn3c2=O)c(OC)c1	> 11 µM (inactive)
CC(=O)NCCNc1ccc([N+](=O)[O-])cc1C#N	> 11 µM (inactive)
O=C(O)c1cccc(-n2cccc2/C=C2/SC(=O)N(CC(=O)N3CCCC3)C2=O)c1	> 11 µM (inactive)
CC(C)CNC(=O)c1ccc(C2SCC(=O)N2Cc2ccccc2)cc1 (stereo not given)	> 11 µM (inactive)
Cc1ccc2cc(/C=C(\C#N)C(N)=O)c(N3CCCCC3)nc2c1	> 11 µM (inactive)
N#C/C(=C/c1cccn1-c1cccc(C(=O)O)c1)c1ccc(F)cc1	> 11 µM (inactive)
CCc1ccc(S(=O)(=O)Nc2cc(SCC(=O)O)c(O)c3ccccc23)cc1	> 11 µM (inactive)
Fc1ccc(C2=CC(c3ccco3)n3ncnc3N2)cc1 (stereo not given)	> 11 µM (inactive)
Nc1c(C(=O)N/N=C/c2cccnc2)oc2nc(-c3ccccc3)cc(-c3ccco3)c12	> 11 µM (inactive)
COc1ccc(-n2cc(CNCc3cnc4ccccn34)c(-c3cccc(F)c3)n2)cc1	> 11 µM (inactive)
O=C1N=C(N2CCCCC2)S/C1=C/C1=Cc2ccccc2OC1	> 11 µM (inactive)

SMILES	EC50
CCOC(=O)c1cc(CC)sc1/N=C/c1c(O)[nH]c(=S)[nH]c1=O	> 11 µM (inactive)
CN1C(=O)S/C(=C/c2cccn2-c2cccc(C(=O)O)c2)C1=O	> 11 µM (inactive)
CCN1C(=O)/C(=C2\SC(=S)N(NC(=O)c3ccccc3O)C2=O)c2ccccc21	> 11 µM (inactive)
Cc1nc2cc(N)ccc2n1C1CCCCC1	> 11 µM (inactive)
COC(=O)CCCC1=CC2=CC(=O)C(C)(OC(=O)CCc3ccccc3)C(=O)C2=CO1 (stereo not given)	> 11 µM (inactive)
COc1ccc(N2C(=O)NC(=O)/C(=C/c3ccc([N+](=O)[O-])s3)C2=O)cc1	> 11 µM (inactive)
COc1cc2c3nnc(-c4ccc(F)cc4)c-3cn(Cc3ccc(C)cc3)c2cc1OC	> 11 µM (inactive)
CCOc1ccc(C2OC34CCCCC3C(C#N)(C#N)C2(C#N)C(=N)O4)cc1OC (stereo not given)	> 11 µM (inactive)
O=C(NNS(=O)(=O)c1ccc([N+](=O)[O-])cc1)C(=O)Nc1cccc(C(=O)O)c1	> 11 µM (inactive)
COc1ccc(C2C(C#N)=C(N)OC3=C2C(=O)CC(C)(C)C3)cc1OC (stereo not given)	> 11 µM (inactive)
CCCSc1nnc2nc3c(nn12)c1ccccc1n3C	> 11 µM (inactive)
Cc1cc(C)c2c(c1)NC(c1cc3c(cc1Br)OCO3)C1CC=CC21 (stereo not given)	> 11 µM (inactive)
O=c1/c(=C\c2ccc(O)cc2)sc2nc(-c3ccccc3)c(-c3ccccc3)n12	> 11 µM (inactive)
CN1C(=O)C(=Cc2ccc(SC3CCCCC3)o2)C(=O)N(C)C1=O	> 11 µM (inactive)
Cc1cccn2c(=O)c3cc(C(=O)NCC4CCCO4)c(=N)n(CCc4ccccc4)c3nc12 (stereo not given)	> 11 µM (inactive)
CCOC(=O)C(C(=O)OCC)c1cc(Br)c2noc3c2c1C(=O)c1ccccc1-3	> 11 µM (inactive)
NS(=O)(=O)c1ccc(N=Nc2c[nH]c(=O)c(O)c2)cc1	> 11 µM (inactive)
COc1cccc(NC(=O)C(=O)c2cn(CC(=O)N3CCOCC3)c3ccccc23)c1	> 11 µM (inactive)
COc1ccc(NC(=O)Nc2cc(C)cc(C)c2)cn1	> 11 µM (inactive)
O=C(N/N=C/c1ccc(-c2ccc([N+](=O)[O-])cc2)o1)c1cccnc1	> 11 µM (inactive)
CCCCOC(=O)c1ccc(N=Nc2c(C)c(C#N)c(O)[nH]c2=O)cc1	> 11 µM (inactive)
O=C(Nc1ccccc1F)c1coc(=O)c(Br)c1	> 11 µM (inactive)
COc1ccc(/C=c2\sc3nc(=O)c(C)nn3c2=O)c(OC)c1	> 11 µM (inactive)
Cc1cc(O)c(Oc2cc(C)cc(O)c2O)c(O)c1	> 11 µM (inactive)

SMILES	EC50
COc1cc2c(cc1OC)C(c1ccc(-c3ccc(Cl)c(Cl)c3)o1)=NCC2	> 11 µM (inactive)
COc1cccc(NS(=O)(=O)c2ccc3c(c2)C2C=CCC2C(c2ccc(C(=O)O)cc2)N3)c1 (stereo not given)	> 11 µM (inactive)
CN(C)/C=C/C(=O)c1cnc(-c2ccccc2Cl)s1	> 11 µM (inactive)
O=C(c1ccco1)[C@@H]1[C@@H]2C(=O)N(c3ccccc3)C(=O)[C@@H]2C2c3ccccc3C=CN21 (stereo not given in full)	> 11 µM (inactive)
COc1ccc(CCn2c(O)c(C=Nc3ccc(NC(C)=O)cc3)c(=O)[nH]c2=O)cc1OC	> 11 µM (inactive)
CCN1C(=O)/C(=C\c2cccs2)C(C(=O)OC)=C1C	> 11 µM (inactive)
CCC(=O)OC1(C)C(=O)C=C2C=C(c3ccsc3)OC=C2C1=O (stereo not given)	> 11 µM (inactive)
COc1ccc(NC(=O)c2ccc(NCCCN3CCOCC3)c([N+](=O)[O-])c2)cc1	> 11 µM (inactive)
CCOc1ccc(N2C(=O)/C(=C/c3ccco3)C(=O)NC2=S)cc1	> 11 µM (inactive)
CCc1c(C(=O)NNC(=S)Nc2ccc(S(=O)(=O)Nc3ncccn3)cc2)csc1C	> 11 µM (inactive)
OCCOc1ccc(C2=NCCO2)cc1	> 11 µM (inactive)
O=C(NCc1ccccn1)C1Nc2ccc(OC(F)(F)F)cc2C2C=CCC12 (stereo not given)	> 11 µM (inactive)
COc1ccc2nc(SCC(=O)Nc3nonc3C)[nH]c2c1	> 11 µM (inactive)
Cc1ccc(Oc2nc(-c3ccccn3)nc3ccccc23)cc1	> 11 µM (inactive)
c1ccc(-c2nnc(-c3ccccn3)nn2)nc1	> 11 µM (inactive)
Cc1ccc(NCC(=O)N/N=C/c2ccc(C(=O)O)cc2)cc1	> 11 µM (inactive)
COc1cccc(N=Nc2c(=O)[nH]n3c(=O)cc(C)[nH]c23)c1	> 11 µM (inactive)
N=c1c(C(=O)NC2CCCC2)cc2c(=O)n3ccccc3nc2n1Cc1ccccc1	> 11 µM (inactive)
COc1ccccc1-n1c(O)c(/C=C2\C=Nc3ccccc32)c(=O)[nH]c1=O	> 11 µM (inactive)
Oc1[nH]c2ccc(Br)cc2c1N=Nc1nn[nH]n1	> 11 µM (inactive)
Nc1cccc2c1C(=O)N(Cc1nnc(-c3ccccc3Br)o1)C2=O	> 11 µM (inactive)
CCOC(=O)c1ccc(-n2c(C)ccc2C)cc1	> 11 µM (inactive)
CN1C(=O)/C(=C/c2ccc3c(c2)OCO3)N=C1c1ccccc1	> 11 µM (inactive)
